Measurements: patent publication US20070270429A1, “Function Inhibitor of Effector Cell” (priority 2003, published 2007)

System: human CD8-positive T cell
Assay: Allo-reaction growth test (class I-MLR) of human CD8-positive T cell with dendritic cell
Format: cell-based
Details: 5 days
Description: After treating the cells with BrdU for a predetermined period of time, the plate was centrifuged (300×g, 10 minutes), and then turned upside down and lightly shaken to remove the labeled medium. The plate was dried (for about 15 minutes) using a hair dryer. A cell fixing and DNA denaturing solution (200 μl, attached to the kit) was added to each well and left alone for 30 minutes. After removing the cell fixing and DNA denaturing solution and further removing water, a peroxidase-labeled anti-BrdU antibody (anti-BrdU-POD reaction solution) (100 μl) (attached to the kit) was added thereto and left alone at room temperature for 90 minutes. The antibody solution was discarded, each well was washed three times with PBS (200 μl), water was discarded, and then the substrate solution (100 μl) (attached to the kit) was added thereto. After carrying out the enzyme reaction for a period of 5 to 30 minutes, 1 N sulfuric acid solution (25 μl) was added thereto and stirred on a shaker. The absorbance of samples was measured by a microplate reader (SPECTRAMAX-PRO) at 450 nm (control wavelength: 690 nm).
A heparinized blood sample was collected from a human, healthy volunteer, and peripheral blood mononuclear cell (PBMC) was isolated by the density gradient centrifugation described in the above-described (2-1). CD8-positive T cell was isolated from this PBMC by the negative selection method described in the above-described (2-1).
CD 14-positive cell was obtained by fractionating the PBMC obtained by the above-described method using VarioMACS (Miltenyl Biotec). Specifically, CD14 antigen was labeled with antibody magnetic beads by adding 20 μl of CD14 MicroBeads (Miltenyl Biotec) to 1×10^7 cells of the PBMC, mixing them and incubating at 6 to 12° C. for 15 minutes. The cells were washed once with an MACS buffer (PBS containing 2 mM EDTA and 0.5% bovine serum albumin (BSA)) (20 ml) (attached to the kit) and re-suspended in the MACS buffer (2 ml). […]

Which results are given for CCCCN1C(=O)[C@@H]([C@H](O)C2CCCCC2)NC(=O)C12CCN(Cc1ccc(Cc3ccc(C(=O)O)cc3OC)cc1)CC2 [Compound (b), 4-[4-({(3R)-1-butyl-3-[(R)-cyclohexyl(hydroxy)methyl]-2,5-dioxo-1,4,9-triazaspiro[5.5]undec-9-yl}methyl)benzyl]-3-methoxybenzoic acid]?
inhibition ratio of allo-reaction growth (0.1 μM): 7.8%; inhibition ratio of allo-reaction growth (1 μM): 17.6%; inhibition ratio of allo-reaction growth (10 μM): 44.1%
